Here are results for 39 compounds from US10633389B2, “CARM1 inhibitors and uses thereof” (Epizyme, Inc., priority 2013, dated 2020).

The test system of experiment [1] is asymmetric di-methyl PABP1 in RKO cells. As to the kind of experiment: RKO methylation assay, In Cell Western (ICW) for asymmetric di-methyl PABP1. The class given is cell-based. Conditions: Homo sapiens, RKO, Cellular potencies, ICW PABP1me2a. The essentials: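 RKO cells treated with compound for 48 h at 37 °C, then fixed, permeabilized and immunostained for asymmetric di-methyl PABP1, with DRAQ5 as DNA stain. Infrared 700/800 nm signal ratio normalized to DMSO and 20 μM reference-compound controls; IC50 from triplicate wells.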

The next experiment addresses human CARM1 (PRMT4) (Homo sapiens (Human), UniProt Q86X55). Put plainly: CARM1 enzyme assay on peptide substrate (3H-SAM Flashplate). Conditions: Biochemical potencies, read-out: Biochem IC50.

Some results are limits rather than exact numbers.

Sequence of human CARM1 (PRMT4) (Q86X55 other isoform, or with tags, fused parts or gaps isoform Q86X55-1): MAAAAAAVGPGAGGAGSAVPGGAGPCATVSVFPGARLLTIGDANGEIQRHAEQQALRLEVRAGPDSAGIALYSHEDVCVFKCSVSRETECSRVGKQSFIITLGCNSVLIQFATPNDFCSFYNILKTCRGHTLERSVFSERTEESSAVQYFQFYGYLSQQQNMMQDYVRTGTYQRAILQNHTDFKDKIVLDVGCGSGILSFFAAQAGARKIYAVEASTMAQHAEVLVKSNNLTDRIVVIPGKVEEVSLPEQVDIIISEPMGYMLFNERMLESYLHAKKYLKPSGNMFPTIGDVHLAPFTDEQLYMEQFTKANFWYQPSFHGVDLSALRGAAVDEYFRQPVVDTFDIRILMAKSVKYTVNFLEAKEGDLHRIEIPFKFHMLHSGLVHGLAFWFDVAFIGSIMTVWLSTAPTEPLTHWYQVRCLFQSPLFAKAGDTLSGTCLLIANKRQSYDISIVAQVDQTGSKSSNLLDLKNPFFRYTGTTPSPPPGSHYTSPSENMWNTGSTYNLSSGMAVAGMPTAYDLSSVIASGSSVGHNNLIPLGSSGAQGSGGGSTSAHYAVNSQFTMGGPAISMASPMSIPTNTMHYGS

A word on the IC50: it is the point on the concentration scale where inhibition reaches its midpoint. For `CCN(c1nc(-c2cccc(OCC(O)CNC)c2)nc(NC2CCOCC2)c1C)C1CCOCC1` (stereo not drawn) [Example 606-1a], the IC50 in experiment [1] was in the range of 10 to 20 µM; on human CARM1 (PRMT4), 1000 to 3000 nM.

In the case of `CNCC(O)COc1cccc(-c2nc(-c3ccn4cnnc4c3)c(C)c(-c3c(C)noc3C)n2)c1` (stereo not drawn) [Example 37-1a], the half-inhibitory concentration (IC50) lay in the range of 10 to 20 µM in experiment [1] and 100 to 1000 nM at human CARM1 (PRMT4).

For `CNCC(O)COc1cccc(-c2nc(NCCOC)cc(-c3ccc4c(c3)OCCO4)n2)c1` (stereo not drawn) [Example 628-1a], the half-inhibitory concentration (IC50) in experiment [1] is at least 20 µM; at human CARM1 (PRMT4) it was 100 to 1000 nM.

Turning to `CNCC(O)COc1cccc(-c2nc(C(=O)N(C)CC3CCOCC3)cc(-c3c(C)noc3C)n2)c1` (stereo not drawn) [Example 46-1a], the IC50 in experiment [1] was 10 to 20 µM; on human CARM1 (PRMT4) it was 100 to 1000 nM.

As to `CNCC(O)COc1cccc(-c2nc(-c3c(C)noc3C)c(C)c(-c3c(C)noc3C)n2)c1` (stereo not drawn) [Example 25-1a], the IC50 in experiment [1] was in the range of 10 to 20 µM; at human CARM1 (PRMT4), 100 to 1000 nM.

Consider `CNCC(O)COc1cccc(-c2nc(NCCOC)cc(-c3ccc(S(C)(=O)=O)cc3)n2)c1` (stereo not drawn) [Example 637-1a], for which the values for the half-maximal inhibitory concentration (IC50) (in experiment [1]; on human CARM1 (PRMT4)) were at least 20 µM and 100 to 1000 nM, respectively.

In the case of `CNCC(O)COc1cccc(-c2nc(NC3CCOCC3)cc(-c3cncnc3)n2)c1` (stereo not drawn) [Example 655-1a], the half-inhibitory concentration (IC50) was at least 20 µM in experiment [1] and 100 to 1000 nM on human CARM1 (PRMT4).

As to `CNCC(O)COc1cccc(-c2nc(-c3c(C)n[nH]c3C)cc(N(C)C3CCOCC3)n2)c1` (stereo not drawn) [Example 534-1a], the IC50 fell in the range of 5 to 10 µM in experiment [1] and 100 to 1000 nM at human CARM1 (PRMT4).

Consider `CNCC(O)COc1cccc(-c2nc(NCCOC)cc(-c3ccc(C(F)(F)F)nc3)n2)c1` (stereo not drawn) [Example 636-1a], for which the IC50 is at least 20 µM in experiment [1] and 100 to 1000 nM on human CARM1 (PRMT4).

Take `CNCC(O)COc1cccc(-c2nc(NC3CCOC3)c(C)c(N3CCC(O)(CCO)CC3)n2)c1` (stereo not drawn) [Example 399-1a]: the values for the IC50 (in experiment [1]; on human CARM1 (PRMT4)) were 10 to 20 µM and 100 to 1000 nM, respectively.

Regarding `CNCC(O)COc1cccc(-c2nc(NC3CCOCC3)c(C)c(N3CCN(C(C)=O)CC3)n2)c1` (stereo not drawn) [Example 643-1a], the results for the half-inhibitory concentration (IC50) (in experiment [1]; at human CARM1 (PRMT4)) were at least 20 µM and 1000 to 3000 nM, respectively.

As for `CNCC(O)COc1cccc(-c2nc(-c3c(C)n[nH]c3C)c(C)c(-c3c(C)noc3C)n2)c1` (stereo not drawn) [Example 26-1a], the figures for the IC50 (in experiment [1]; on human CARM1 (PRMT4)) were 10 to 20 µM and 1000 to 3000 nM, respectively.

Turning to `CNCC(O)COc1cccc(-c2nc(NCC(F)(F)F)cc(-c3ccc(S(C)(=O)=O)cc3)n2)c1` (stereo not drawn) [Example 627-1a], the half-inhibitory concentration (IC50) is at least 20 µM in experiment [1] and 100 to 1000 nM at human CARM1 (PRMT4).

For `CNCC(O)COc1cccc(-c2nc(NC3CCOCC3)cc(-c3ccnc(OC)c3)n2)c1` (stereo not drawn) [Example 653-1a], the results for the half-inhibitory concentration (IC50) (in experiment [1]; at human CARM1 (PRMT4)) were at least 20 µM and 1000 to 3000 nM, respectively.

As for `CNC[C@H](O)COc1ccc(F)c(-c2nc(-c3c(C)noc3C)c(C)c(-c3c(C)noc3C)n2)c1` [Example 81-3], the IC50 is at least 20 µM in experiment [1] and 1000 to 3000 nM at human CARM1 (PRMT4).

Take `CNC[C@@H](O)COc1ccc(F)c(-c2nc(-c3c(C)noc3C)c(C)c(-c3c(C)noc3C)n2)c1` [Example 78-3]: the IC50 in experiment [1] is at least 20 µM; at human CARM1 (PRMT4), 100 to 1000 nM.

Take `CNCC(O)COc1cccc(-c2nc(N[C@@H]3CCOC3)c(C)c(-c3ccc(=O)[nH]c3)n2)c1` (stereo partly drawn) [Example 409-1a]: the IC50 in experiment [1] is 10 to 20 µM; on human CARM1 (PRMT4), 100 to 1000 nM.

`CNCC(O)COc1cccc(-c2nc(-c3c(C)ncnc3C)cc(N(C)C3CCOCC3)n2)c1` (stereo not drawn) [Example 556-1a]: the values for the IC50 (in experiment [1]; at human CARM1 (PRMT4)) were 10 to 20 µM and 100 to 1000 nM, respectively.

As for `CNCC(O)COc1cccc(-c2nc(N[C@@H]3CCOC3)c(C)c(-c3ccnc(-n4ccnc4)c3)n2)c1` (stereo partly drawn) [Example 405-1a], the half-inhibitory concentration (IC50) is 10 to 20 µM in experiment [1] and 100 to 1000 nM at human CARM1 (PRMT4).

Consider `CNCC(O)COc1cccc(-c2nc(N[C@@H]3CCOC3)c(C)c(N3CCC(C)(O)CC3)n2)c1` (stereo partly drawn) [Example 385-1a], for which the concentration for half-maximal inhibition (IC50) in experiment [1] fell in the range of 10 to 20 µM; at human CARM1 (PRMT4), 100 to 1000 nM.

For the compound `CNCC(O)COc1cccc(-c2nc(N(C)C3CCOCC3)cc(N3CCN(C(C)=O)CC34CC4)n2)c1` (stereo not drawn) [Example 552-1a], the IC50 in experiment [1] was in the range of 10 to 20 µM; on human CARM1 (PRMT4), 100 to 1000 nM.

For `CNCC(O)COc1cccc(-c2nc(N[C@@H]3CCOC3)c(C)c(-c3ccnc(N4CCC4)c3)n2)c1` (stereo partly drawn) [Example 407-1a], the IC50 in experiment [1] was 10 to 20 µM; at human CARM1 (PRMT4) it was 100 to 1000 nM.

Regarding `CNCC(O)COc1cccc(-c2nc(NCCOC)cc(-c3ccnc(OC)c3)n2)c1` (stereo not drawn) [Example 638-1a], the values for the 50% inhibitory concentration (IC50) (in experiment [1]; on human CARM1 (PRMT4)) were at least 20 µM and 100 to 1000 nM, respectively.

`CNCC(O)COc1cccc(-c2nc(NCCCN3CCCCCC3=O)cc(N3CCOCC3)n2)c1` (stereo not drawn) [Example 685-1a]: the IC50 was at least 20 µM in experiment [1] and 1000 to 3000 nM on human CARM1 (PRMT4).

Turning to `CNCC(O)COc1cccc(-c2nc(N[C@@H]3CCOC3)c(C)c(-c3ccnc(NC)c3)n2)c1` (stereo partly drawn) [Example 388-1a], the results for the IC50 (in experiment [1]; on human CARM1 (PRMT4)) were 10 to 20 µM and 100 to 1000 nM, respectively.

For the compound `CNCC(O)COc1cccc(-c2nc(C(=O)N3CCOCC3)cc(N(C)C3CCOCC3)n2)c1` (stereo not drawn) [Example 604-1a], the IC50 in experiment [1] is 10 to 20 µM; at human CARM1 (PRMT4), 1000 to 3000 nM.

Take `CNCC(O)COc1cccc(-c2nc(N[C@@H]3CCOC3)c(C)c(-c3ccnn3C)n2)c1` (stereo partly drawn) [Example 337-1a]: the half-maximal inhibitory concentration (IC50) in experiment [1] was 5 to 10 µM; at human CARM1 (PRMT4), 100 to 1000 nM.

Consider `CNCC(O)COc1cccc(-c2nc(NC3CCOCC3)c(C(F)F)c(-c3c(C)noc3C)n2)c1` (stereo not drawn) [Example 214-1a], for which the 50% inhibitory concentration (IC50) in experiment [1] was 5 to 10 µM; at human CARM1 (PRMT4), 100 to 1000 nM.

Consider `CNCC(O)COc1cc(Cl)cc(-c2nc(N[C@@H]3CCOC3)c(C)c(C(=O)N(C)CC3CCOCC3)n2)c1` (stereo partly drawn) [Example 353-1a], for which the IC50 in experiment [1] fell in the range of 10 to 20 µM; at human CARM1 (PRMT4), 100 to 1000 nM.

Turning to `CNCC(O)COc1cccc(-c2nc(N[C@@H]3CCOC3)c(C)c(C(=O)NCC3CCOCC3)n2)c1` (stereo partly drawn) [Example 346-1a], the half-inhibitory concentration (IC50) is 10 to 20 µM in experiment [1] and 100 to 1000 nM on human CARM1 (PRMT4).

In the case of `CNCC(O)COc1cccc(-c2nc(C(=O)NCC3CCOCC3)cc(-c3c(C)noc3C)n2)c1` (stereo not drawn) [Example 65-1a], the values for the IC50 (in experiment [1]; at human CARM1 (PRMT4)) were 10 to 20 µM and 100 to 1000 nM, respectively.

Consider `CNCC(O)COc1cccc(-c2nc(N[C@@H]3CCOC3)c(C)c(-c3ccnnc3)n2)c1` (stereo partly drawn) [Example 459-1a], for which the results for the 50% inhibitory concentration (IC50) (in experiment [1]; on human CARM1 (PRMT4)) were 10 to 20 µM and 100 to 1000 nM, respectively.

Regarding `CNCC(O)COc1cccc(-c2nc(N[C@@H]3CCOC3)c(C)c(-c3cnccn3)n2)c1` (stereo partly drawn) [Example 451-1a], the IC50 in experiment [1] fell in the range of 10 to 20 µM; at human CARM1 (PRMT4) it was 100 to 1000 nM.

Turning to `CNCC(O)COc1cccc(-c2nc(NCCOC)cc(C3=CCCC3)n2)c1` (stereo not drawn) [Example 667-1a], the 50% inhibitory concentration (IC50) was at least 20 µM in experiment [1] and 100 to 1000 nM at human CARM1 (PRMT4).

Consider `CNCC(O)COc1cccc(-c2nc(NCCOC)cc(-c3ccc(OC)c(OC)c3)n2)c1` (stereo not drawn) [Example 630-1a], for which the IC50 in experiment [1] was at least 20 µM; on human CARM1 (PRMT4), 100 to 1000 nM.

For the compound `CNCC(O)COc1cccc(-c2nc(N[C@H]3CO[C@H]4OCC[C@H]43)cc(N3CCOCC3)n2)c1` (stereo partly drawn) [Example 373-1a], the IC50 was 10 to 20 µM in experiment [1] and 100 to 1000 nM on human CARM1 (PRMT4).

With `CNCC(O)COc1cccc(-c2nc(N[C@@H]3CCOC3)c(C)c(-c3ccnc(N(C)C)c3)n2)c1` (stereo partly drawn) [Example 389-1a], the figures for the concentration for half-maximal inhibition (IC50) (in experiment [1]; on human CARM1 (PRMT4)) were 10 to 20 µM and 100 to 1000 nM, respectively.

In the case of `CNCC(O)COc1cccc(-c2nc(-c3c(C)noc3C)cc(N(C)C(C)=O)n2)c1` (stereo not drawn) [Example 64-1a], the 50% inhibitory concentration (IC50) in experiment [1] lay in the range of 10 to 20 µM; at human CARM1 (PRMT4) it was 100 to 1000 nM.

As to `CNCC(O)COc1cccc(-c2nc(C3CCN(C(C)=O)CC3)cc(N(C)C3CCOCC3)n2)c1` (stereo not drawn) [Example 546-1a], the IC50 in experiment [1] was in the range of 10 to 20 µM; on human CARM1 (PRMT4), 100 to 1000 nM.
